# Experimental data published in US20230146923A1, “COMPOSITIONS AND METHODS FOR INHIBITION AND TARGETING OF P97” (California Institute of Technology, priority 2021, published 2023).
# Where two headings read alike, the source gives them in different places.
# Key:
# [1] = system: cyclin D1; assay: Cyclin D1 level and degradation (co-treatment, CHX chase); format: cell-based; details: HCT116, 6 hours; MG132 1 μM, CB-5083 2 μM, Baf A1 10 μM
# Description: FIGS. 12A-12C depicts Western blots detecting the effects of p97 inhibitors and MG132 on cell cycle proteins in HT29 and HCT116 cells. […] Then, 50 μM of CHX was added and cells were collected at 0 h, 0.5 h, and 1 h. FIG. 12C depicts half-life of cyclin D1 in HCT116 cells. HCT116 cells were pre-treated with 5 μM of CB-5083 or DMSO for 30 minutes before adding 50 μM of CHX, and cells were collected at 0, 10, 20, 30 min (n=3), * indicates p<0.05 according to unpaired t-test.
# (§1) The concentration of MG132, CB-5083 and Baf A1 was 1 μM, 2 μM and 10 μM, respectively. […] FIGS. 13D-13E depict the half-life of Securin in HCT116 cells. HCT116 cells were treated with 1 μM of MG132, 2 μM of CB-5083, 1 μM of MG132 plus 2 μM of CB-5083 or DMSO. […] Cells were pretreated with […] for 1 h. […] For FIGS. 13B-13G, D, B, M, C and N represents DMSO, Baf A1, MG132, CB-5083 and NMS-873, respectively. Data are shown as mean±SD. Statistical analysis was performed using one-way ANOVA.
# Cells were co-treated with CB-5083 and either the proteasome inhibitor MG132 or the autophagy inhibitor Bafilomycin A1 (Baf A1).
# [2] = system: Securin; assay: Securin degradation (CHX chase) in HCT116 cells; format: cell-based; details: HCT116, pretreated with MG132 for 1 h, then 2 μM CB-5083 with 50 μM CHX
# Description: as §1
# [3] = system: HCT116 cells; assay: Temporal label-free (LFQ) proteomics of HCT116 cells treated with p97 inhibitors; format: cell-based; details: 4 μM UPCDC-30245, 2 μM CB-5083, 4 μM NMS-873
# Description: This percentage was calculated by dividing the number of overlapping proteins by the sum of all DE proteins identified by p97 KD and/or inhibitor treatment. HCT116 cells were treated with 4 μM UPCDC-30245, 2 μM CB-5083 or 4 μM of NMS-874 for the indicated time points, n=2.
# To explore the temporal proteomic profiles of p97 inhibition, HCT116 cells were treated with DMSO, and p97 inhibitors (CB-5083, NMS-873 or UPCDC-30245) for 2 h, 6 h, 10 h, 18 h, or 24 h in duplicate. […] To compare the proteomic profile of p97 shRNA KD to that of different p97 inhibitors, DE proteins identified through p97 KD were compared with those identified under different inhibitor treatments (p<0.05) at each time point. […] To reveal the cellular effects common to both p97 KD and p97 inhibitors, overlapping DE proteins across different timepoints for each inhibitor treatment were combined.
# [4] = system: Securin; details: HT29, pretreated with MG132 for 1 h, then 2 μM CB-5083 with 50 μM CHX
# Description: as §1
# [5] = system: HCT116 cells; details: HCT116, 6 h treatment, 2 μM CB-5083
# Description: as §1
# [6] = system: cancer cell proliferation; details: ref [22]; cited from earlier work
# [7] = system: HCT116 tumor cells; details: mouse xenograft models implanted with HCT116 tumor cells, ref [22]; cited from earlier work
# [8] = system: HCT116 cells; assay: Cell cycle analysis (DNA content); format: cell-based; details: HCT116, 24 h
# Description: FIG. 7A depicts cell cycle analysis of HCT116 cells after 24 h of treatments with DMSO, 1 μM of MG132 (MG) or 2 μM of CB-5083. […] Data were from TMT labeling proteomics. M, C and N indicates MG132, CB-5083 and NMS-873 treatment, respectively. […] HCT116 cells were treated for 24 h with DMSO, 1 μM of MG132 (MG), 2 μM of CB-5083 (CB) or 4 μM of NMS-873 (NMS), n=3.
# [9] = system: HCT116 cells; assay: TMT labeling proteomics of HCT116 cells treated with MG132, CB-5083 or NMS-873; format: cell-based; details: for Log2 FC Baculoviral IAP repeat-containing protein 5 (BIRC5) / Log2 FC Cell division cycle protein 20 homolog (CDC20) / Log2 FC F-box only protein 5 (FBXO5) / Log2 FC G1/S-specific cyclin-D1 (CCND1) / Log2 FC Geminin (GMNN) / Log2 FC M-phase inducer phosphatase 2 (CDC25B) / Log2 FC Mitotic checkpoint serine/threonine-protein kinase BUB1 (BUB1) / Log2 FC Myc proto-oncogene protein (MYC) / Log2 FC Origin recognition complex subunit 6 (ORC6) / Log2 FC Ribonucleoside-diphosphate reductase subunit M2 (RRM2) / Log2 FC Securin (PTTG1): compound vs DMSO; for Four XBP1 activated genes/proteins (DNAJB11, SRPR, SRPRB, SYVN1), Log2FC: HCT116, 24 h of treatment, p<0.05
# Description: HCT116 cells were treated with 1 μM MG132, 2 μM CB-5083 or 4 μM of NMS-874 for 6 h or 24 h, n=2. […] M, C and N represents MG132, CB-5083 and NMS-873, respectively.
# As a step toward understanding the differential effects of inhibiting p97 and the proteasome in cancer treatment, the effect of inhibiting p97 was compared to proteasome inhibition using tandem mass tag (TMT) 16-plexed labelling. This technique allowed for capture of alterations in the proteome after exposure to MG132 (proteasome inhibitor) and p97 inhibitors (CB-5083 and NMS-873). […] Samples were pooled together, fractionated into 8 fractions using high pH reverse chromatography, and analyzed using the highly accurate RTS-SPS-MS3 method.
# [10] = system: cyclin D1; details: Parisi et al. [71]; cited from earlier work
Structure (SMILES),UPR proteins and those linked to protein processing in the ER [3],"Log2 FC Baculoviral IAP repeat-containing protein 5 (BIRC5) ([9]; HCT116, 6 h treatment)","Log2 FC Cell division cycle protein 20 homolog (CDC20) ([9]; HCT116, 6 h treatment)","Log2 FC F-box only protein 5 (FBXO5) ([9]; HCT116, 6 h treatment)","Log2 FC G1/S-specific cyclin-D1 (CCND1) ([9]; HCT116, 6 h treatment)","Log2 FC Geminin (GMNN) ([9]; HCT116, 6 h treatment)","Log2 FC M-phase inducer phosphatase 2 (CDC25B) ([9]; HCT116, 6 h treatment)","Log2 FC Mitotic checkpoint serine/threonine-protein kinase BUB1 (BUB1) ([9]; HCT116, 6 h treatment)","Log2 FC Myc proto-oncogene protein (MYC) ([9]; HCT116, 6 h treatment)","Log2 FC Origin recognition complex subunit 6 (ORC6) ([9]; HCT116, 6 h treatment)","Log2 FC Ribonucleoside-diphosphate reductase subunit M2 (RRM2) ([9]; HCT116, 6 h treatment)","Log2 FC Securin (PTTG1) ([9]; HCT116, 6 h treatment)","Four XBP1 activated genes/proteins (DNAJB11, SRPR, SRPRB, SYVN1), Log2FC [9]","Log2 FC Baculoviral IAP repeat-containing protein 5 (BIRC5) ([9]; HCT116, 24 h treatment)","Log2 FC Cell division cycle protein 20 homolog (CDC20) ([9]; HCT116, 24 h treatment)","Log2 FC F-box only protein 5 (FBXO5) ([9]; HCT116, 24 h treatment)","Log2 FC G1/S-specific cyclin-D1 (CCND1) ([9]; HCT116, 24 h treatment)","Log2 FC Geminin (GMNN) ([9]; HCT116, 24 h treatment)","Log2 FC M-phase inducer phosphatase 2 (CDC25B) ([9]; HCT116, 24 h treatment)","Log2 FC Mitotic checkpoint serine/threonine-protein kinase BUB1 (BUB1) ([9]; HCT116, 24 h treatment)",also measured
"CO/C1=C\C(C)=C\[C@@H](C)[C@@H](O)[C@@H](C)C/C(C)=C/C=C/[C@H](OC)[C@@H]([C@@H](C)[C@@H](O)[C@H](C)[C@@]2(O)C[C@@H](O)[C@H](C)[C@@H](C(C)C)O2)OC1=O [Baf A1, Bafilomycin A1]",–,–,–,–,–,–,–,–,–,–,–,–,–,–,–,–,–,–,–,–,Effect on CB-5083 mediated cyclin D1 downregulation (co-treatment) [1]: no effect on cyclin D1 levels
Cc1cc2c(C(N)=O)cccc2n1-c1nc2c(c(NCc3ccccc3)n1)COCC2 [CB-5083],upregulated,−0.5,−0.4,−0.8,−1.4,−0.4,−1.1,−0.3,−0.5,−0.4,−0.2,−0.9,significantly upregulated,−0.8,−1.5,−1.0,−2.0,−1.1,−1.6,−1.1,"Degradation of Securin after MG132 pretreatment [2]: slightly accelerated the degradation of Securin; Degradation of Securin after MG132 pretreatment [4]: slightly accelerated the degradation of Securin; RNA level of CDC20 [5]: downregulated; Cancer cell proliferation [6]: strongly inhibited cancer cell proliferation; Tumor growth [7]: efficacious in inhibiting tumor growth; Potency in reducing G0/G1 and increasing G2/M distribution compared to MG132 [8]: less potent; Distribution of cells in the G0/G1 phase ([8]; 1 μM MG132, 2 μM CB-5083): reduced distribution in the G0/G1 phase; Log2 FC Myc proto-oncogene protein (MYC) ([9]; HCT116, 24 h treatment): −0.7; Log2 FC Origin recognition complex subunit 6 (ORC6) ([9]; HCT116, 24 h treatment): −0.3; Log2 FC Ribonucleoside-diphosphate reductase subunit M2 (RRM2) ([9]; HCT116, 24 h treatment): −1.1; Log2 FC Securin (PTTG1) ([9]; HCT116, 24 h treatment): −1.9"
"c1ccc(CNc2nc(NCc3ccccc3)c3ccccc3n2)cc1 [DBeQ, N^2,N^4-Bis(phenylmethyl)-2,4-quinazolinediamine]",–,–,–,–,–,–,–,–,–,–,–,–,–,–,–,–,–,–,–,–,Cyclin D1 degradation [10]: promotes cyclin D1 degradation
"Cc1cc(OCc2nnc(SC3CCCC3)n2-c2cccnc2)ccc1-c1ccc(S(C)(=O)=O)cc1 [NMS-873, 3-[3-cyclopentylsulfanyl-5-[[3-methyl-4-(4-methylsulfonylphenyl)phenoxy]methyl]-1,2,4-triazol-4-yl]pyridine]",upregulated,−0.5,−0.6,−1.1,−1.8,−0.6,−1.6,−0.4,−1.1,−0.5,−0.3,−1.2,significantly upregulated,−2.0,−2.8,−2.4,−3.2,−1.8,−2.2,−2.1,"Log2 FC Myc proto-oncogene protein (MYC) ([9]; HCT116, 24 h treatment): −1.1; Log2 FC Origin recognition complex subunit 6 (ORC6) ([9]; HCT116, 24 h treatment): −0.6; Log2 FC Ribonucleoside-diphosphate reductase subunit M2 (RRM2) ([9]; HCT116, 24 h treatment): −2.7; Log2 FC Securin (PTTG1) ([9]; HCT116, 24 h treatment): −2.9"
"CC(C)N1CCN(CCNC2CCN(c3cccc(-c4cc5cc(F)ccc5[nH]4)c3)CC2)CC1 [UPCDC-30245, 1-(3-(5-Fluoro-1H-indol-2-yl)phenyl)-N-(2-(4-isopropylpiperazin-1-yl)ethyl)piperidin-4-amine]",not,–,–,–,–,–,–,–,–,–,–,–,–,–,–,–,–,–,–,–,–
